Results reported in PubChem BioAssay (NCI).
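The compound was tested at five concentrations on cells cultured in 96-well plates, with a 48-hour exposure period. GI50 marks 50% less growth. At the TGI there is no net growth.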

Tests used:
Assay in all cases: inhibition of tumour cell growth, NCI panel, 48 h
CCRF-CEM leukemia = tested on: CCRF-CEM leukemia
HL-60(TB) leukemia = tested on: HL-60(TB) leukemia
RXF 393 renal = tested on: RXF 393 renal
SF-295 CNS = tested on: SF-295 CNS
SK-MEL-28 melanoma = tested on: SK-MEL-28 melanoma
SK-OV-3 ovarian = tested on: SK-OV-3 ovarian
UACC-62 melanoma = tested on: UACC-62 melanoma
NCI-H226 lung = tested on: NCI-H226 lung

Compound	TGI (CCRF-CEM leukemia) [µM]	TGI (HL-60(TB) leukemia) [µM]	TGI (RXF 393 renal) [µM]	TGI (SF-295 CNS) [µM]	TGI (SK-MEL-28 melanoma) [µM]	TGI (SK-OV-3 ovarian) [µM]	TGI (UACC-62 melanoma) [µM]	TGI (NCI-H226 lung) [µM]	GI50 (CCRF-CEM leukemia) [µM]	GI50 (HL-60(TB) leukemia) [µM]	GI50 (NCI-H226 lung) [µM]	GI50 (RXF 393 renal) [µM]	GI50 (SF-295 CNS) [µM]	GI50 (SK-MEL-28 melanoma) [µM]	GI50 (SK-OV-3 ovarian) [µM]	GI50 (UACC-62 melanoma) [µM]
CCOP(=O)(OCC)C1CCCCOC1=O (stereo unspecified)	> 100	> 100	> 100	> 100	> 100	> 100	> 100									
CN1CCc2c1nc(-c1ccccc1)c1c2N(C)CC1	> 100	> 100	> 100	> 100		> 100	> 100									
NCC1(N2CCOCC2)C2CCCC21CO (stereo unspecified)	> 100	> 100	> 100	> 100	> 100	> 100		> 100								
O=C(CCn1[nH]c(=O)c(Cl)c(Cl)c1=O)NOCCCc1ccccc1	> 100	> 100		> 100	> 100		> 100	> 100								
CC(=O)[O][Pb]([O]C(C)=O)([c]1ccccc1)[c]1ccccc1	> 100	> 100	5.69	> 100	> 100	> 100	31.1	> 100	16.2	> 100	64.2	1.41	46.6	6.72	28.1	3.88
COc1ccccc1[N-]C(C1=C([O-])c2ccccc2C1=O)c1ccccc1.COc1ccccc1[N-]C(C1=C([O-])c2ccccc2C1=O)c1ccccc1.[Cu+2] (stereo unspecified)	> 100	> 100		> 100	> 100	6.57	42.4		3.49	3.25			5.33	16.2	2.09	6.66
CCC[CH2][Sn]([CH2]CCC)([O]C(C)=O)[O]C(C)=O	0.832	1.45	0.654	3.79	2.27	3.95	2.37	3.01	0.197	0.524	1.53	0.195	1.85	1	1.93	1.09
CC1=C2CCCC2C/C(=N/Nc2ccc([N+](=O)[O-])cc2[N+](=O)[O-])CC1 (stereo unspecified)		83.2		> 100	> 100	> 100	> 100	> 100								
CC1CC2C(=O)NC(=O)C2c2[nH]c3ccccc3c21 (stereo unspecified)	> 100	> 100		> 100		> 100		> 100								
COC(=O)[C@@H]1CSC(=S)N1C(=O)C[C@H]1CC=CC[C@H]1CC(=O)Sc1ccccc1	14.9	14	30.4	45.3	32.1	50	38.3	47.2								
CCCC(O)[C@@H](O)c1ccc2c(c1O)C(=O)c1c(OC)cccc1C2=O (stereo partly specified)	85.7	42.9		> 100	> 100	> 100	61.8	> 100								
CC1(Sc2ccccc2)CN(Cc2ccccc2)C1=O (stereo unspecified)	> 100	> 100	> 100	> 100	> 100	> 100	> 100	> 100								
CS(=O)(=O)CC1=Nc2nnc(CCCCCCCc3nnc4n3C(=O)C(CS(C)(=O)=O)=N4)n2C1=O	> 100	> 100	> 100	> 100	> 100	> 100	> 100	> 100								
COC(=O)c1[nH]c(=S)[nH]c(=O)c1-c1ccc(Cl)cc1	> 50	> 50	> 50	> 50	> 50	> 50	> 50	> 50								
O=C1C/C(=C/c2ccc(/C=C3/CC(=O)N(c4cccc(Br)c4)C3=O)cc2)C(=O)N1c1cccc(Br)c1	> 100	> 100	93.4	> 100	> 100	> 100	> 100	> 100								
C=C1C(=O)O[C@H]2C[C@@H](C)[C@@H]3CC(=O)OC[C@@]3(C)CC12 (stereo partly specified)	55.6			76.2	47.8	> 100	51.9									
Cc1ccc2c(c1)C1(C)OC(CC(N)C1O)O2 (stereo unspecified)	> 100	> 100	> 100	> 100	> 100	> 100	> 100	> 100								
CC(=O)/C(=C\c1ccco1)C(=O)Nc1ccccc1	> 100	> 100	> 100	> 100	> 100	> 100	> 100									
C=C1C(=O)OC2CC3(C)C=CC(=O)C(=C)C3CC12 (stereo unspecified)			4.46	26.8	3.48	42.1	2.92	25.8								
CN(C)c1ccc2c(NCCCCCCNc3ccnc4cc(N(C)C)ccc34)ccnc2c1	> 100	> 100	38.4	40.3	50.8	> 100	> 100									
